According to the NIST ThermoML archive (doi:10.1016/j.jct.2005.12.005):

Columns and labels:
[1] = 101 kPa, Liquid; for speed of sound: Sing-around technique in a fixed-path interferometer
[2] = refractive index (Na D-line) (dimensionless); conditions: 101.33 kPa, Liquid
[3] = refractive index (Na D-line) (dimensionless); xn = mol fraction of the nth substance listed; conditions: 101 kPa, Liquid
[4] = xn = mol fraction of the nth substance listed; conditions: 101 kPa, Liquid; for speed of sound: Sing-around technique in a fixed-path interferometer

CC1CCCCC1 [methylcyclohexane]
Conditions | mass density, 298.15 K [kg/m3] | mass density, 303.15 K [kg/m3] | mass density, 308.15 K [kg/m3] | refractive index, 298.15 K | refractive index, 303.15 K | refractive index, 308.15 K | speed of sound, 298.15 K [m/s] | viscosity, 298.15 K [mPa·s] | viscosity, 303.15 K [mPa·s] | viscosity, 308.15 K [mPa·s]
[1] | 765 | 760.7 | 756.3 | – | – | – | 1217 | 0.676 | 0.631 | 0.59
[2] | – | – | – | 1.4217 | 1.4192 | 1.4163 | – | – | – | –

COc1ccccc1 [anisole]
Conditions | mass density, 298.15 K [kg/m3] | mass density, 303.15 K [kg/m3] | mass density, 308.15 K [kg/m3] | refractive index, 298.15 K | refractive index, 303.15 K | refractive index, 308.15 K | speed of sound, 298.15 K [m/s] | viscosity, 298.15 K [mPa·s] | viscosity, 303.15 K [mPa·s] | viscosity, 308.15 K [mPa·s]
[1] | 989.2 | 984.5 | 979.8 | – | – | – | 1410 | 1.008 | 0.929 | 0.861
[2] | – | – | – | 1.5136 | 1.5112 | 1.5088 | – | – | – | –

c1ccccc1 [benzene]
Conditions | mass density, 298.15 K [kg/m3] | mass density, 303.15 K [kg/m3] | mass density, 308.15 K [kg/m3] | refractive index, 298.15 K | refractive index, 303.15 K | refractive index, 308.15 K | speed of sound, 298.15 K [m/s] | viscosity, 298.15 K [mPa·s] | viscosity, 303.15 K [mPa·s] | viscosity, 308.15 K [mPa·s]
[1] | 873.4 | 868.1 | 862.7 | – | – | – | 1302 | 0.602 | 0.56 | 0.523
[2] | – | – | – | 1.4971 | 1.4936 | 1.4903 | – | – | – | –

Cc1ccccc1 [toluene]
Conditions | mass density, 298.15 K [kg/m3] | mass density, 303.15 K [kg/m3] | mass density, 308.15 K [kg/m3] | refractive index, 298.15 K | refractive index, 303.15 K | refractive index, 308.15 K | speed of sound, 298.15 K [m/s] | viscosity, 298.15 K [mPa·s] | viscosity, 303.15 K [mPa·s] | viscosity, 308.15 K [mPa·s]
[1] | 862.3 | 857.6 | 852.9 | – | – | – | 1314 | 0.559 | 0.526 | 0.497
[2] | – | – | – | 1.4931 | 1.4902 | 1.4874 | – | – | – | –

CC1CCCCC1 [methylcyclohexane] + c1ccccc1
Conditions | mass density, 298.15 K [kg/m3] | mass density, 303.15 K [kg/m3] | mass density, 308.15 K [kg/m3] | refractive index, 298.15 K | refractive index, 303.15 K | refractive index, 308.15 K | speed of sound, 298.15 K [m/s] | viscosity, 298.15 K [mPa·s] | viscosity, 303.15 K [mPa·s] | viscosity, 308.15 K [mPa·s]
[3], x1 = 0.104 | – | – | – | 1.484 | 1.481 | 1.4779 | – | – | – | –
[3], x1 = 0.2045 | – | – | – | 1.4728 | 1.4702 | 1.4675 | – | – | – | –
[3], x1 = 0.302 | – | – | – | 1.4628 | 1.4604 | 1.458 | – | – | – | –
[3], x1 = 0.4006 | – | – | – | 1.455 | 1.4524 | 1.4499 | – | – | – | –
[3], x1 = 0.5007 | – | – | – | 1.4475 | 1.4448 | 1.4422 | – | – | – | –
[3], x1 = 0.6004 | – | – | – | 1.441 | 1.4384 | 1.4357 | – | – | – | –
[3], x1 = 0.7056 | – | – | – | 1.4341 | 1.4316 | 1.4292 | – | – | – | –
[3], x1 = 0.8033 | – | – | – | 1.429 | 1.4262 | 1.4235 | – | – | – | –
[3], x1 = 0.8982 | – | – | – | 1.4245 | 1.4219 | 1.4192 | – | – | – | –
[3], x1 = 1 | – | – | – | 1.4217 | 1.4192 | 1.4163 | – | – | – | –
[4], x1 = 0.104 | 855.9 | 850.7 | 845.5 | – | – | – | 1293 | 0.584 | 0.546 | 0.509
[4], x1 = 0.2045 | 840.8 | 835.8 | 830.7 | – | – | – | 1284 | 0.566 | 0.53 | 0.494
[4], x1 = 0.302 | 827.6 | 822.7 | 817.8 | – | – | – | 1276 | 0.561 | 0.527 | 0.492
[4], x1 = 0.4006 | 815.8 | 811 | 806.2 | – | – | – | 1267 | 0.556 | 0.523 | 0.49
[4], x1 = 0.5007 | 805 | 800.3 | 795.6 | – | – | – | 1259 | 0.559 | 0.527 | 0.496
[4], x1 = 0.6004 | 795.3 | 790.6 | 786 | – | – | – | 1250 | 0.571 | 0.537 | 0.504
[4], x1 = 0.7056 | 785.9 | 781.4 | 776.8 | – | – | – | 1242 | 0.597 | 0.564 | 0.531
[4], x1 = 0.8033 | 778.5 | 774 | 769.5 | – | – | – | 1234 | 0.617 | 0.583 | 0.549
[4], x1 = 0.8982 | 771.4 | 767 | 762.6 | – | – | – | 1225 | 0.647 | 0.607 | 0.567
[4], x1 = 1 | 765 | 760.7 | 756.3 | – | – | – | 1217 | 0.676 | 0.631 | 0.59

CC1CCCCC1 [methylcyclohexane] + COc1ccccc1
x1 = 1
Conditions | mass density, 298.15 K [kg/m3] | mass density, 303.15 K [kg/m3] | mass density, 308.15 K [kg/m3] | refractive index, 298.15 K | refractive index, 303.15 K | refractive index, 308.15 K | speed of sound, 298.15 K [m/s] | viscosity, 298.15 K [mPa·s] | viscosity, 303.15 K [mPa·s] | viscosity, 308.15 K [mPa·s]
[3] | – | – | – | 1.4217 | 1.4192 | 1.4163 | – | – | – | –
[4] | 765 | 760.7 | 756.3 | – | – | – | 1217 | 0.676 | 0.631 | 0.59

Cc1ccc(C)cc1 [1,4-dimethylbenzene]
Conditions | mass density, 298.15 K [kg/m3] | mass density, 303.15 K [kg/m3] | mass density, 308.15 K [kg/m3] | refractive index, 298.15 K | refractive index, 303.15 K | refractive index, 308.15 K | speed of sound, 298.15 K [m/s] | viscosity, 298.15 K [mPa·s] | viscosity, 303.15 K [mPa·s] | viscosity, 308.15 K [mPa·s]
[1] | 856.7 | 852.3 | 848 | – | – | – | 1326 | 0.611 | 0.572 | 0.54
[2] | – | – | – | 1.4926 | 1.4893 | 1.4867 | – | – | – | –

c1ccccc1 [benzene] + CC1CCCCC1
x2 = 0
Conditions | mass density, 298.15 K [kg/m3] | mass density, 303.15 K [kg/m3] | mass density, 308.15 K [kg/m3] | refractive index, 298.15 K | refractive index, 303.15 K | refractive index, 308.15 K | speed of sound, 298.15 K [m/s] | viscosity, 298.15 K [mPa·s] | viscosity, 303.15 K [mPa·s] | viscosity, 308.15 K [mPa·s]
[3] | – | – | – | 1.4971 | 1.4936 | 1.4903 | – | – | – | –
[4] | 873.4 | 868.1 | 862.7 | – | – | – | 1302 | 0.602 | 0.56 | 0.523

Cc1cc(C)cc(C)c1 [1,3,5-trimethylbenzene]
Conditions | mass density, 298.15 K [kg/m3] | mass density, 303.15 K [kg/m3] | mass density, 308.15 K [kg/m3] | refractive index, 298.15 K | refractive index, 303.15 K | refractive index, 308.15 K | speed of sound, 298.15 K [m/s] | viscosity, 298.15 K [mPa·s] | viscosity, 303.15 K [mPa·s] | viscosity, 308.15 K [mPa·s]
[1] | 861.2 | 857.1 | 853 | – | – | – | 1346 | 0.667 | 0.622 | 0.586
[2] | – | – | – | 1.496 | 1.4936 | 1.4913 | – | – | – | –
